Measurements from US20250059170A1, “SOLID STATE FORMS OF AN FGFR INHIBITOR” (Kinnate Biopharma Inc., priority 2021, published 2025).
≈ marks a conversion by molar mass, not a printed value. Each block holds one compound with its values, some of them ahead of it.

Columns and labels:
Format in all cases: physicochemical
[1] = Preliminary solubility in 14 solvents by solvent addition with visual assessment; conditions: thermodynamic from solid, RT
From the text: Preliminary solubility of Compound 1 (Form V) was estimated in 14 selected solvents at RT using solvent addition method via visual assessment of samples.

[2] = Water activity studies in IPA/water
Protocol: Water activity studies of Form I, II and V were also performed in IPA/water with different water content at RT and 50° C.

[3] = Solubility testing of Form II in SGF, water, FaSSIF and FeSSIF; conditions: for solubility: thermodynamic from solid
Protocol: Nine crystal forms were identified, assigned as Form I-IX, including a mono-hydrate (Form I) four anhydrates (Form II, III, V and IX), a hemihydrate, (Form IV) and three solvates (Form VI, VII and VIII). […] The three solvates (Form VI, VII, and VIII) converted to Form II after desolvation and recrystallization during heating by DSC. Form II was evaluated by DVS, solubility and stability testing. […] The purity decreased by about 0.3% at 60° C. for 3 days and 7 days, mainly due to the increase of impurities at RRT 0.9, 0.91 and 1.07.
(§1) HPLC analysis was performed with an Agilent HPLC 1260 series instrument.

[4] = Dynamic Vapor Sorption (DVS)
Protocol: Moisture sorption/desorption data was collected on a DVS Intrinsic PLUS (SMS, UK). The sample was placed into a tared sample chamber and automatically weighed. The sample was dried at 40° C./0% RH until the dm/dt was less than 0.002% and cooled to 25° C.

[5] = Solid stability of Form II
Protocol: as §1
The solid stability of Form II was evaluated at 60° C. for 7 days, 40° C./75% RH for 6 days, and RT/92.5% RH for 2 days, respectively. […] The purity of Compound 1 decreased by about 0.3% at 60° C. for 3 days and 7 days, mainly due to the increase of the impurities at RRT 0.9, 0.91 and 1.07.

[6] = Competitive slurry inter-conversion studies; conditions: competitive slurries in non-aqueous solvents, RT and 50° C.
Protocol: Competitive slurries of Form I, II and V were performed in IPAC at RT and 50° C. […] A competitive slurry of Form III and Form II was conducted in IPA and IPAC at RT and 50° C., respectively, and all mixtures converted to Form II after 1 day. A competitive slurry of Form II and IX was also performed in IPA and IPAC at RT and 50° C. […] In IPA at RT and IPA and EA at RT and 50° C., all mixtures tended to convert to Form II.

[7] = Solid form characterization summary (hygroscopicity comment); conditions: comment on solid form
From the text: A summary of the characterization data for the solid forms of Compound 1 identified is shown below in Table 15.

SMILES: C=CC(=O)N1C[C@@H](n2nc(C#Cc3c(F)cc4c(ncn4C4CC4)c3F)c(C(N)=O)c2NC)C[C@@H]1COC [Form II, 1-((3S,5R)-1-acryloyl-5-(methoxymethyl)pyrrolidin-3-yl)-3-((1-cyclopropyl-4,6-difluoro-1H-benzo[d]imidazol-5-yl)ethynyl)-5-(methylamino)-1H-pyrazole-4-carboxamide]
- solubility ([3]; SGF, simulated gastric fluid): 800 µg/mL (≈ 1.53 mM)
- Solubility in FeSSIF relative to FaSSIF ([3]; at 24 h): about thirty times higher
- solubility ([3]; water): ~3 µg/mL (≈ 0.00573 mM)
- Hygroscopicity ([4]; DVS): slightly hygroscopic
- Crystal form after DVS testing ([4]; after DVS testing): remained unchanged
- Solid stability ([5]; 40° C./75% RH for 6 days): physically and chemically stable
- Purity decrease ([5]; 60° C. for 3 days and 7 days): about 0.3%
- Solid stability ([5]; RT/92.5% RH for 2 days): physically stable
- Water activity (aw) at which the form is physically stable ([2]; 50° C.): ≤ 0.55
- Water activity (aw) at which the form is physically stable ([2]; RT): ≤ 0.35
- Relative stability of forms [6]: most stable form in non-aqueous solvents

SMILES: C=CC(=O)N1C[C@@H](n2nc(C#Cc3c(F)cc4c(ncn4C4CC4)c3F)c(C(N)=O)c2NC)C[C@@H]1COC [Form III, 1-((3S,5R)-1-acryloyl-5-(methoxymethyl)pyrrolidin-3-yl)-3-((1-cyclopropyl-4,6-difluoro-1H-benzo[d]imidazol-5-yl)ethynyl)-5-(methylamino)-1H-pyrazole-4-carboxamide]
- Hygroscopicity [7]: Hygroscopic

SMILES: C=CC(=O)N1C[C@@H](n2nc(C#Cc3c(F)cc4c(ncn4C4CC4)c3F)c(C(N)=O)c2NC)C[C@@H]1COC [Form V, 1-((3S,5R)-1-acryloyl-5-(methoxymethyl)pyrrolidin-3-yl)-3-((1-cyclopropyl-4,6-difluoro-1H-benzo[d]imidazol-5-yl)ethynyl)-5-(methylamino)-1H-pyrazole-4-carboxamide]
- solubility ([1]; organic solvent or mixture, MeOH, THF, acetone, MEK and ACN, read-out: Solubility (relatively high)): > 20000 µg/mL
- solubility ([1]; non-polar solvents and water, read-out: Solubility (practically insoluble)): < 1000 µg/mL

Continued, values first:

- solubility ([1]; organic solvent or mixture, ACN, Form V material, read-out: Solubility): 27000 to 36000 µg/mL (≈ 51.6 to 68.8 mM)
- solubility ([1]; organic solvent or mixture, Acetone, Form V material, read-out: Solubility): ~34000 µg/mL (≈ 64.9 mM)
- solubility ([1]; organic solvent or mixture, EA, Form V material, read-out: Solubility): ~8000 µg/mL (≈ 15.3 mM)
- solubility ([1]; organic solvent or mixture, EtOH, Form V material, read-out: Solubility): ~21000 µg/mL (≈ 40.1 mM)
- solubility ([1]; organic solvent or mixture, IPA, Form V material, read-out: Solubility): ~5000 µg/mL (≈ 9.55 mM)
- solubility ([1]; organic solvent or mixture, IPAC, Form V material, read-out: Solubility): ~4000 µg/mL (≈ 7.64 mM)
- solubility ([1]; organic solvent or mixture, Isobutanol, Form V material, read-out: Solubility): ~6000 µg/mL (≈ 11.5 mM)
- solubility ([1]; organic solvent or mixture, MEK, Form V material, read-out: Solubility): ~31000 µg/mL (≈ 59.2 mM)
- solubility ([1]; organic solvent or mixture, MTBE, Form V material, read-out: Solubility): < 750 µg/mL
- solubility ([1]; organic solvent or mixture, MeOH, Form V material, read-out: Solubility): > 106000 µg/mL
- solubility ([1]; organic solvent or mixture, THF, Form V material, read-out: Solubility): > 100000 µg/mL
- solubility ([1]; organic solvent or mixture, Toluene, Form V material, read-out: Solubility): < 1000 µg/mL
- solubility ([1]; organic solvent or mixture, n-Heptane, Form V material, read-out: Solubility): < 1000 µg/mL
- solubility ([1]; Water, Form V material, read-out: Solubility): < 1000 µg/mL
SMILES: C=CC(=O)N1C[C@@H](n2nc(C#Cc3c(F)cc4c(ncn4C4CC4)c3F)c(C(N)=O)c2NC)C[C@@H]1COC [Compound 1, 1-((3S,5R)-1-acryloyl-5-(methoxymethyl)pyrrolidin-3-yl)-3-((1-cyclopropyl-4,6-difluoro-1H-benzo[d]imidazol-5-yl)ethynyl)-5-(methylamino)-1H-pyrazole-4-carboxamide]

- Water activity (aw) at which Form I is more stable than Form II ([2]; 50° C.): ≥ 0.75
- Water activity (aw) at which Form I is more stable than Form II ([2]; RT): ≥ 0.55
SMILES: C=CC(=O)N1C[C@@H](n2nc(C#Cc3c(F)cc4c(ncn4C4CC4)c3F)c(C(N)=O)c2NC)C[C@@H]1COC [Form I, 1-((3S,5R)-1-acryloyl-5-(methoxymethyl)pyrrolidin-3-yl)-3-((1-cyclopropyl-4,6-difluoro-1H-benzo[d]imidazol-5-yl)ethynyl)-5-(methylamino)-1H-pyrazole-4-carboxamide]
